Experimental data reported in ChEMBL document CHEMBL2040738, “Regioselective N1-alkylation of 3,4-dihydropyrimidine-2(1H)-ones: screening of their biological activities against Ca(2+)-ATPase” (Eur J Med Chem, 2012).
The source made the active and inactive calls. The calls are words filed in the database; no cut-off is given here.

Columns and labels:
[1] = Inhibition of sodium/potassium ATPAse
[2] = Inhibition of goat Ca2+-ATPase assessed as liberation of inorganic phosphate preincubated for 5 mins measured after 30 mins following ATP addition by colorimetric analysis in presence of Mg2+; parameters: species or system Capra hircus; conditions: read-out: I50
[3] = species on record: Capra hircus; test: Inhibition of goat Ca2+-ATPase assessed as liberation of inorganic phosphate preincubated for 5 mins measured after 30 mins following ATP addition by colorimetric analysis in absence of Mg2+ and 300 uM verapamil
[4] = Inhibition of goat Ca2+-ATPase assessed as liberation of inorganic phosphate preincubated for 5 mins measured after 30 mins following ATP addition by colorimetric analysis in absence of Mg2+; parameters: species or system Capra hircus; conditions: read-out: I50
[5] = species on record: Capra hircus; test: Inhibition of goat Ca2+-ATPase assessed as liberation of inorganic phosphate preincubated for 5 mins measured after 30 mins following ATP addition by colorimetric analysis in presence of Mg2+ and 300 uM verapamil

inhibition [1] | IC50 [2] [µM] | inhibition [3] | IC50 [4] [µM] | inhibition [5] | Structure (SMILES)
inactive | 132 | Active | 282 | Active | CCOC(=O)C1=C(C)NC(=O)NC1c1cccc([N+](=O)[O-])c1 (stereo not given)
inactive | 289 | Active | 203 | Active | CCOC(=O)C1=C(C)NC(=O)NC1c1ccc(O)cc1 (stereo not given)
inactive | 268 | Active | 247 | Active | CCOC(=O)C1=C(C)NC(=O)NC1c1ccccc1Cl (stereo not given)
inactive | 222 | Active | 226 | Active | CCOC(=O)C1=C(C)NC(=O)NC1c1ccccc1 (stereo not given)
